One assay concerns the target T1, HCV NS5B (Hepatitis C virus genotype 1b, UniProt Q9WMX2).
T1 construct: The protein was expressed with an 18 amino acid C-terminal truncation to enhance the solubility; made in house; host or cells: E. coli BL21(DE3), pET21a
In words: HCV NS5B RdRp enzyme assay (standard or modified). It is filed as biochemical. Particulars: HCV NS5B RdRp genotype 1b enzyme; standard or modified assay not stated. The method, then:
HCV NS5B RdRp cloning, expression, and purification. The cDNA encoding the NS5B protein of HCV, genotype 1b, was cloned into the pET21a expression vector. The protein was expressed with an 18 amino acid C-terminal truncation to enhance the solubility. The E. coli competent cell line BL21(DE3) was used for expression of the protein. Cultures were grown at 37° C. for ˜4 hours until the cultures reached an optical density of 2.0 at 600 nm. The cultures were cooled to 20° C. and induced with 1 mM IPTG. Fresh ampicillin was added to a final concentration of 50 μg/ml and the cells were grown overnight at 20° C.
Cell pellets (3 L) were lysed for purification to yield 15-24 mgs of purified NS5B. The lysis buffer consisted of 20 mM Tris-HCl, pH 7.4, 500 mM NaCl, 0.5% triton X-100, 1 mM DTT, 1 mM EDTA, 20% glycerol, 0.5 mg/ml lysozyme, 10 mM MgCl2, 15 ug/ml deoxyribonuclease I, and Complete TM protease inhibitor tablets (Roche). After addition of the lysis buffer, frozen cell pellets were resuspended using a tissue homogenizer. To reduce the viscosity of the sample, aliquots of the lysate were sonicated on ice using a microtip attached to a Branson sonicator. The sonicated lysate was centrifuged at 100,000×g for 1 hr at 4° C. and filtered through a 0.2 μm filter unit (Corning).
The protein was purified using two sequential chromatography steps: Heparin sepharose CL-6B and polyU sepharose 4B (Pharmacia). The chromatography buffers were identical to the lysis buffer but contained no lysozyme, deoxyribonuclease I, MgCl2 or protease inhibitor and the NaCl concentration of the buffer was adjusted according to the requirements for charging the protein onto the column. Each column was eluted with a NaCl gradient which varied in length from 5-50 column volumes depending on the column type. After the final chromatography step, the resulting purity of the enzyme is >90% based on SDS-PAGE analysis. The enzyme was aliquoted and stored at −80° C.
Standard HCV NS5B RdRp enzyme assay. HCV RdRp genotype 1b assays were run in a final volume of 60 μl in 96 well plates (Corning 3600). The assay buffer is composed of 20 mM Hepes, pH 7.5, 2.5 mM KCl, 2.5 mM MgCl2, 1 mM DTT, 1.6 U RNAse inhibitor (Promega N2515), 0.01 mg/ml BSA (Sigma B6917), and 2% glycerol. All compounds were serially diluted (3-fold) in DMSO and diluted further in water such that the final concentration of DMSO in the assay was 2%. HCV RdRp genotype 1b enzyme was used at a final concentration of 28 nM. A polyA template was used at 6 nM, and a biotinylated oligo-dT12 primer was used at 180 nM final concentration. Template was obtained commercially (Amersham 27-4110). Biotinylated primer was prepared by Sigma Genosys. 3H-UTP was used at 0.6 μCi (0.29 μM total UTP). Reactions were initiated by the addition of enzyme, incubated at 30° C. for 60 min, and stopped by adding 25 μl of 50 mM EDTA containing SPA beads (4 μg/μl, Amersham RPNQ 0007). Plates were read on a Packard Top Count NXT after >1 hr incubation at room temperature.
Modified HCV NS5B RdRp enzyme assay. A modified enzyme assay was performed essentially as described for the standard enzyme assay except for the following: The biotinylated oligo dT12 primer was precaptured on streptavidin-coated SPA beads by mixing primer and beads in assay buffer and incubating at room temperature for one hour. Unbound primer was removed after centrifugation. The primer-bound beads were resuspended in 20 mM Hepes buffer, pH 7.5 and used in the assay at final concentrations of 20 nM primer and 0.67 μg/μl beads. Order of addition in the assay: enzyme (1.75 nM) was added to diluted compound followed by the addition of a mixture of template (0.36 nM), 3H-UTP (0.6 μCi, 0.29 μM), and primer-bound beads, to initiate the reaction; concentrations given are final. Reactions were allowed to proceed for 4 hours at 30° C.
IC50 values for compounds were determined using seven different [I]. […]

The next assay concerns HCV replicon cells. The experiment in a line: HCV replicon FRET / luciferase assay. It is filed as cell-based. The following applies: 50% reduction in FRET or luciferase activity. The method, then: FRET Assay Preparation. The HCV FRET screening assay was performed in 96-well cell culture plates. The FRET peptide (Anaspec, Inc.) (Taliani et al., Anal. Biochem. 1996, 240, 60-67) contains a fluorescence donor, EDANS, near one end of the peptide and an acceptor, DABCYL, near the other end. The fluorescence of the peptide is quenched by […] resonance energy transfer (RET) between the donor and the acceptor, but as the NS3 protease cleaves the peptide the products are released from RET quenching and the fluorescence of the donor becomes apparent. The assay reagent was made as follows: 5× cell Luciferase cell culture lysis reagent from Promega (#E153A) diluted to 1× with dH2O, NaCl added to 150 mM final, the FRET peptide diluted to 20 μM final from a 2 mM stock.
To prepare plates, HCV replicon cells, with or without a Renilla luciferase reporter gene, were trypsinized and plated in a 96-well plate with titrated test compounds added in columns 3 through 12; columns 1 and 2 contained a control compound (HCV control inhibitor), and the bottom row contained cells with DMSO only. The plates were then placed in a CO2 incubator at 37° C.
Assays. Subsequent to addition of the test compounds described above (FRET Assay Preparation), at various times the plate was removed and Alamar blue solution (Trek Diagnostics, #00-100) was added to measure cellular toxicity. After reading in a Cytoflour 4000 instrument (PE Biosystems), plates were rinsed with PBS and then used for FRET assay by the addition of 30 ul of the FRET peptide assay reagent described above (FRET Assay Preparation) per well. The plate was then placed into the Cytoflour 4000 instrument which had been set to 340 excite/490 emission, automatic mode for up to 20 cycles and the plate read in a kinetic mode. Typically, the signal to noise using an endpoint analysis after the reads was at least three-fold. Alternatively, after Alamar blue reading, plates were rinsed with PBS, then used for luciferase assay using the Promega Dual-Glo Luciferase Assay System or the Promega EnduRen Live Cell Substrate assay.
Compound analysis was performed by quantification of the relative HCV replicon inhibition and the relative cytotoxicity values. To calculate cytoxicity values, the average Alamar Blue fluorescence signals from the control wells were set as 100% non-toxic. The individual signals in each of the compound test wells were then divided by the average control signal and multiplied by 100% to determine […]. To calculate the HCV replicon inhibition values, an average background value was obtained from the two wells containing the highest amount of HCV control inhibitor at the end of the assay period. These numbers were similar to those obtained from naïve Huh-7 cells. The background numbers were then subtracted from the average signal obtained from the control wells and this number was used as 100% activity. The individual signals in each of the compound test wells were then divided by the averaged control values after background subtraction and multiplied by 100% to determine percent activity. EC50 values were calculated as the concentration which caused a 50% reduction in FRET or luciferase activity. The two numbers generated for the compound plate, percent cytoxicity and percent activity, were used to determine compounds of interest for further analysis.
(In antiviral work, replicon cells carry a viral genome segment that copies itself.)

pEC50, pIC50: −log10 of the molar value.

The source of these data is patent publication US7521444B2, “Compounds for the treatment of hepatitis C” (Bristol-Myers Squibb Company, priority 2007, dated 2009).

T1 sequence (Q9WMX2 2420-2992): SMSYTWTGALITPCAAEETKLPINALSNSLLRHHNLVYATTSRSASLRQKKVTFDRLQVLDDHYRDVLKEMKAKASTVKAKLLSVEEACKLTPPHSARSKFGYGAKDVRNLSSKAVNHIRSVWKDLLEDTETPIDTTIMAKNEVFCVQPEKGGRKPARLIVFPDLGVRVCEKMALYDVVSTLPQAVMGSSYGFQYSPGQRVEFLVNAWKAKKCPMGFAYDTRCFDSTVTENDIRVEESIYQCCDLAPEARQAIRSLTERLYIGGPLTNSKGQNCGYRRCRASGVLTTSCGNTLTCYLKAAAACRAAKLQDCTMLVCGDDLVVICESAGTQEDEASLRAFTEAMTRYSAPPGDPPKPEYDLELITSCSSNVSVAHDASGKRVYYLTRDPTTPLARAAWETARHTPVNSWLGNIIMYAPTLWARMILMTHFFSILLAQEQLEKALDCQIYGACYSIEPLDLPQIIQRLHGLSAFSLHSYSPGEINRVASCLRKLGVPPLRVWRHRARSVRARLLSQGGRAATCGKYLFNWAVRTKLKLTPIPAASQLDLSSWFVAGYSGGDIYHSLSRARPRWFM

For orientation: pIC50 means the negative decadic logarithm of the IC50, by convention in mol/L. High values mean a low IC50, low ones a high IC50. One may read the pEC50 as −log10 of the EC50, conventionally taken in molar units. A higher pEC50 goes with a small EC50. On HCV NS5B, `COc1ccc2c(c1)C1CC1(C(=O)N1CC3CCCN(C(=O)OC(C)(C)C)C3C1)Cn1c-2c(C2CCCCC2)c2ccc(C(=O)NS(=O)(=O)N(C)C)cc21` (centres unmarked) [drawing 24] had a pIC50 of 6.30 to 8.34. In the assay with HCV replicon cells (Hepatitis C virus), this molecule had a pEC50 of 6.30 to 8.34.

Take `COc1ccc2c(c1)C1CC1(C(=O)N1CC3CCCN(C(C)=O)C3C1)Cn1c-2c(C2CCCCC2)c2ccc(C(=O)NS(=O)(=O)N(C)C)cc21` (centres unmarked) [drawing 34]: the pIC50 on HCV NS5B is 6.30 to 8.34. The pEC50 in the assay with HCV replicon cells (Hepatitis C virus) was 6.30 to 8.34.

In turn, `COc1ccc2c(c1)C1CC1(C(=O)N1CC3CCCN(C(C)=O)C3C1)Cn1c-2c(C2CCCCC2)c2ccc(C(=O)NS(=O)(=O)N(C)C)cc21` (centres unmarked) [drawing 36] had a pIC50 on HCV NS5B of 6.30 to 8.34. In the assay with HCV replicon cells, this molecule showed a pEC50 of 6.30 to 8.34.

On HCV NS5B, `COc1ccc2c(c1)C1CC1(C(=O)N1CC3CCCN(C(C)=O)C3C1)Cn1c-2c(C2CCCCC2)c2ccc(C(=O)NS(=O)(=O)C3CC3)cc21` (centres unmarked) [drawing 67] showed a pIC50 of 6.30 to 8.34. This molecule gave a pEC50 in the assay on HCV replicon cells (Hepatitis C virus) of 6.30 to 8.34.

At HCV NS5B, `COc1ccc2c(c1)C1CC1(C(=O)N1CC3CCCN(C(C)=O)C3C1)Cn1c-2c(C2CCCCC2)c2ccc(C(=O)NS(=O)(=O)C3CC3)cc21` (centres unmarked) [drawing 68] had a pIC50 of 6.30 to 8.34. This molecule also showed a pEC50 in the assay with HCV replicon cells of 6.30 to 8.34.

`COc1ccc2c(c1)[C@@H]1C[C@]1(C(=O)N1CC3CCCN(C(C)=O)C3C1)Cn1c-2c(C2CCCCC2)c2ccc(C(=O)NS(=O)(=O)N(C)C)cc21` (some centres unmarked) [drawing 72] had a pIC50 at HCV NS5B of 6.30 to 8.34. Also, the negative logarithm of the EC50 (pEC50) in the assay on HCV replicon cells (Hepatitis C virus) was 6.30 to 8.34.

Regarding `COc1ccc2c(c1)[C@@H]1C[C@]1(C(=O)N1CC3CCCN(C(C)=O)C3C1)Cn1c-2c(C2CCCCC2)c2ccc(C(=O)NS(=O)(=O)N(C)C)cc21` (some centres unmarked) [drawing 73], the negative logarithm of the IC50 (pIC50) at HCV NS5B is 6.30 to 8.34. Further, in the assay with HCV replicon cells, the pEC50 is 6.30 to 8.34.
